Measured values: patent US10626087B2, “Indoline and tetrahydroquinoline sulfonyl inhibitors of dimetalloenzymes and use of the same” (priority 2015, dated 2020)
Where two headings read alike, the source gives them in different places.

Molecular target: NDM-1 (Klebsiella pneumoniae, UniProt C7C422)
Experiment: Inhibition of NDM-1 assay (CHROMACEF hydrolysis, absorbance at 442 nm)
Assay type: biochemical
Settings: for Activity w/100 uM [I]: enzyme activity with 100 uM inhibitor; for Activity w/200 uM [I]: enzyme activity with 200 uM inhibitor
Protocol: The ability of the compounds described herein to inhibit NDM-1 was determined in the following way.
A Substrate Working Solution was prepared from CRHROMACEF (6 μM) and Tween-20 (0.02% v/v) in water. An Enzyme Working Solution was prepared with NDM-1 (0.5 μg/mL), Hepes (0.1 M), pH 7 and Tween-20 (0.02% v/v). An Inhibitor Working Solution was prepared from 50 mM of the inhibitor in DMSO. The final assay conditions were 1 mL, Hepes (50 mM), pH 7, Tween-20 (0.02% v/v), CHROMACEF (3 uM), Δ35 NDM-1 (0.25 μg/mL). Extra zinc was omitted from these assays because extra ZnSO4 interferes with the metal binding groups in inhibitors.
[…] Supplemental DMSO was added to reach a final volume of 4 μL. NDM-1 Working Solution ([…]) was added to the cuvette and the inhibitor and enzyme were allowed to incubate for about 20 minutes. The reaction was initiated by added 0.5 mL Substrate Working Solution. The solution was mixed quickly, but gently to avoid bubble formation. […] to start the reaction. The reaction was mixed fast, but gently. The change in absorbance ΔΔAbs442nm/min was measured for each inhibitor from the linear slope from each inhibitor concentration.

[1] = *estimated or actual from a single point, target not given, values match the NDM-1 IC50 column, read-out: IC50 μM*
[2] = fitted IC50 with error, read-out: NDM-1 IC50

NDM-1, sequence (C7C422 36-270 limits assumed, looked up): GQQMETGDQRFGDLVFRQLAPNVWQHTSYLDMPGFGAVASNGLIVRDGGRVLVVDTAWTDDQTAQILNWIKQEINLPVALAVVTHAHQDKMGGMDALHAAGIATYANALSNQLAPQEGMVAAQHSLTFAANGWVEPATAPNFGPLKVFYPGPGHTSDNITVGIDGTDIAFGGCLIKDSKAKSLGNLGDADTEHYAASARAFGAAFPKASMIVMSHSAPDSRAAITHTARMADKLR

IC50 [1] [µM] | inhibition at 5 µM [%] | inhibition at 50 µM (at 50 μM) [%] | SMILES | other results
– | – | – | O=C(O)c1ccc(CN2C(=O)c3ccccc3C2=O)cc1 | Activity w/100 uM [I]: 54%; Activity w/200 uM [I]: 38%
– | – | – | CC(=O)N1CCc2cc(Br)c(S(=O)(=O)n3cc(C4(O)CCCCC4)nn3)cc21 | Activity w/100 uM [I]: 53%; Activity w/200 uM [I]: 53%
1 | 78.3 | 99 | CC(=O)N1CCc2cc(Cl)c(S(=O)(=O)/N=C(\N)CCO)cc21 | –
2 | 77.8 | – | COC(=O)C/C(N)=N/S(=O)(=O)c1cc2c(cc1Br)CCN2C(C)=O | –
2.6 | 75.4 | – | CC(=O)N1CCc2cc(Br)c(S(=O)(=O)/C=C(\N)CC(O)c3ccccc3)cc21 (stereo not drawn) | inhibition at 25 µM: 98.5%; IC50 [2]: 2.62 µM
3 | 58.4 | 96.9 | CC(=O)N1CCc2cc(Cl)c(S(=O)(=O)/C=C(\N)CC(O)c3ccccc3)cc21 (stereo not drawn) | –
9 | – | 90.3 | CC(=O)N1CCc2cc(Br)c(S(=O)(=O)/N=C(\N)CCO)cc21 | inhibition at 10 µM: 54%
14 | – | 97 | CC(=O)N1CCc2cc(Br)c(S(=O)(=O)/N=C(\N)Cc3ccccn3)cc21 | inhibition at 10 µM: 42.9%
49 | – | 54.4 | CN/C(CC(C)(C)O)=N\S(=O)(=O)c1cc2c(cc1Br)CCN2C(C)=O | –
55 | – | 42 | CC(=O)N1CCc2cc(Br)c(S(=O)(=O)/N=C(\N)CC3(O)CCCC3)cc21 | inhibition at 200 µM: 64.6%
60 | – | 35 | CC(=O)N1CCc2cc(Br)c(S(=O)(=O)/N=C(\N)CC3(O)CCCCC3)cc21 | –
80 | 19.9 | 32.7 | CC(=O)N1CCc2cc(Cl)c(S(=O)(=O)/N=C(\N)CC(C)(C)O)cc21 | –
8.7 | – | 93 | CC(=O)N1CCc2cc(Br)c(S(=O)(=O)NC(=O)CC(C)(C)O)cc21 | inhibition at 10 µM: 62.7%; IC50 [2]: 8.74 µM
100 | 15.5 | 31.9 | CC(=O)N1CCc2cc(Cl)c(S(=O)(=O)NC(=O)CC(O)c3ccccc3)cc21 (stereo not drawn) | –
100 | 8.1 | 28.8 | CC(=O)N1CCc2cc(Br)c(S(=O)(=O)NC(=O)CC(O)c3ccccc3)cc21 (stereo not drawn) | –
300 | – | 10 | CC(=O)NS(=O)(=O)c1ccc2c(c1)N(C(C)=O)CC2 | inhibition at 200 µM: 34%
– | – | 12.8 | CC(=O)N1CCc2cc(F)c(S(=O)(=O)NC(=O)CC(O)c3ccccc3)cc21 (stereo not drawn) | NDM-1 % Inhibition (at 50 μM): 13.7%
– | – | – | CC(=O)NS(=O)(=O)c1cc2c(cc1Br)CCN2C(C)=O | inhibition at 500 µM (at 500 μM): 18%
2.9 | 73.8 | – | CC(=O)N1CCc2cc(Br)c(S(=O)(=O)n3cc(C(C)O)nn3)cc21 (stereo not drawn) | inhibition at 25 µM: 95.1%; IC50 [2]: 2.91 µM
100 | – | – | CC(=O)N1CCc2cc(Br)c(S(=O)(=O)n3cc(C(C)(C)O)nn3)cc21 | inhibition at 100 µM: 47%; inhibition at 200 µM: 47%; IC50 [2]: 100 µM
– | – | – | CC(=O)N1CCc2cc(Br)c(S(=O)(=O)n3cc(-c4ccccc4)nn3)cc21 | inhibition at 100 µM: 25%
– | – | – | CC(=O)N1CCc2cc(Br)c(S(=O)(=O)/N=C(\N)Cc3ccccc3)cc21 [MM-86] | Activity w/100 uM [I]: 63%; Activity w/200 uM [I]: 46%
– | – | – | CO/C(CC(C)(C)O)=N\S(=O)(=O)c1cc2c(cc1Br)CCN2C(C)=O [MM-94] | Activity w/100 uM [I]: 96%; Activity w/200 uM [I]: 35%
– | – | – | CC(=O)N1CCc2cc(Br)c(S(=O)(=O)/N=C(\N)CC(C)(C)O)cc21 [drawing 95] | Activity w/100 uM [I]: 26%; Activity w/200 uM [I]: 6.4%
22 | – | – | CC(=O)N1CCc2cc(Br)c(S(=O)(=O)/N=C(\N)CC(C)(C)O)cc21 [drawing 104] | Ki: 6 µM; inhibition at 100 µM: 74%; inhibition at 200 µM: 93.6%; IC50 [2]: 22 µM
110 | – | – | CC(=O)N1CCc2cc(Br)c(S(=O)(=O)/N=C(\N)Cc3ccccc3)cc21 [drawing 109] | inhibition at 100 µM: 55.5%; inhibition at 200 µM: 73.8%; IC50 [2]: 110 µM
